Measured values published in PubChem BioAssay (NCI).
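Interpolation was linear, between the two tested concentrations surrounding the appropriate level; five concentrations were tested over 48 hours in 96-well plates. Abbreviation: GI50, concentration required for 50% inhibition of growth. At the TGI there is no net growth.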

Legend:
Experiment in all cases: inhibition of tumour cell growth, NCI panel, 48 h
[1] = test system: HL-60(TB) leukemia
[2] = test system: EKVX NSCLC
[3] = test system: OVCAR-8 ovarian
[4] = test system: MDA-MB-231 breast
[5] = test system: MOLT-4 leukemia
[6] = test system: MDA-MB-435
[7] = test system: KM12 colon
[8] = test system: SK-MEL-28 melanoma
[9] = test system: TK-10 renal
[10] = test system: BT-549 breast
[11] = test system: SNB-75 CNS
[12] = test system: COLO 205 colon
[13] = test system: IGROV1 ovarian
[14] = test system: RXF 393 renal
[15] = test system: OVCAR-5 ovarian
[16] = test system: HOP-92 NSCLC
[17] = test system: 786-0 renal
[18] = test system: RPMI-8226 leukemia
[19] = test system: HCC-2998 colon
[20] = test system: OVCAR-4 ovarian
[21] = test system: LOX IMVI melanoma
[22] = test system: NCI/ADR-RES ovarian
[23] = test system: MALME-3M melanoma
[24] = test system: SR leukemia
[25] = test system: SK-MEL-2 melanoma
[26] = test system: HS 578T breast
[27] = test system: SK-MEL-5 melanoma
[28] = test system: SK-OV-3 ovarian
[29] = test system: CAKI-1 renal
[30] = test system: UO-31 renal
[31] = test system: UACC-62 melanoma
[32] = test system: NCI-H23 lung
[33] = test system: UACC-257 melanoma
[34] = test system: SF-539 CNS
[35] = test system: HCT-116 colon
[36] = test system: PC-3 prostate
[37] = test system: SNB-19 CNS
[38] = test system: SW-620 colon
[39] = test system: ACHN renal
[40] = test system: SN12C renal
[41] = test system: U251 CNS
[42] = test system: NCI-H460 lung
[43] = test system: T-47D breast
[44] = test system: OVCAR-3 ovarian
[45] = test system: SF-268 CNS
[46] = test system: HCT-15 colon
[47] = test system: M14 melanoma
[48] = test system: HT29 colon
[49] = test system: A549 NSCLC
[50] = test system: SF-295 CNS
[51] = test system: DU-145 prostate
[52] = test system: HOP-62 NSCLC
[53] = test system: NCI-H226 lung
[54] = test system: NCI-H522 lung
[55] = test system: A498 renal
[56] = test system: MCF7 breast
[57] = test system: K-562 leukemia
[58] = test system: CCRF-CEM leukemia

O=c1[nH]c(Sc2sc3ccc(Cl)cc3c2CBr)nc(=S)[nH]1
GI50 [1]: > 100 µM | TGI [1]: > 100 µM | GI50 [2]: > 100 µM | TGI [2]: > 100 µM | GI50 [3]: > 100 µM | TGI [3]: > 100 µM | GI50 [4]: > 100 µM | TGI [4]: > 100 µM | GI50 [5]: 99.1 µM | TGI [5]: > 100 µM | GI50 [6]: > 100 µM | TGI [6]: > 100 µM | GI50 [7]: > 100 µM | TGI [7]: > 100 µM | GI50 [8]: > 100 µM | TGI [8]: > 100 µM | GI50 [9]: > 100 µM | TGI [9]: > 100 µM | GI50 [10]: > 100 µM | TGI [10]: > 100 µM | GI50 [11]: > 100 µM | TGI [11]: > 100 µM | GI50 [12]: > 100 µM | TGI [12]: > 100 µM | GI50 [13]: > 100 µM | TGI [13]: > 100 µM | GI50 [14]: > 81.7 µM | TGI [14]: > 100 µM | GI50 [15]: > 100 µM | TGI [15]: > 100 µM | GI50 [16]: > 100 µM | TGI [16]: > 100 µM | GI50 [17]: > 100 µM | TGI [17]: > 100 µM | GI50 [18]: > 100 µM | TGI [18]: > 100 µM | GI50 [19]: > 100 µM | TGI [19]: > 100 µM | GI50 [20]: > 100 µM | TGI [20]: > 100 µM | GI50 [21]: > 100 µM | TGI [21]: > 100 µM | GI50 [22]: > 100 µM | TGI [22]: > 100 µM | GI50 [23]: > 100 µM | TGI [23]: > 100 µM | GI50 [24]: > 100 µM | TGI [24]: > 100 µM | GI50 [25]: > 100 µM | TGI [25]: > 100 µM | GI50 [26]: > 100 µM | TGI [26]: > 100 µM | GI50 [27]: > 100 µM | TGI [27]: > 100 µM | GI50 [28]: > 100 µM | TGI [28]: > 100 µM | GI50 [29]: > 100 µM | TGI [29]: > 100 µM | GI50 [30]: > 100 µM | TGI [30]: > 100 µM | GI50 [31]: > 100 µM | TGI [31]: > 100 µM | GI50 [32]: > 100 µM | TGI [32]: > 100 µM | GI50 [33]: > 100 µM | TGI [33]: > 100 µM | GI50 [34]: > 100 µM | TGI [34]: > 100 µM | GI50 [35]: > 100 µM | TGI [35]: > 100 µM | GI50 [36]: > 100 µM | TGI [36]: > 100 µM | GI50 [37]: > 100 µM | TGI [37]: > 100 µM | GI50 [38]: > 100 µM | TGI [38]: > 100 µM | GI50 [39]: > 100 µM | TGI [39]: > 100 µM | GI50 [40]: > 100 µM | TGI [40]: > 100 µM | GI50 [41]: > 100 µM | TGI [41]: > 100 µM | GI50 [42]: > 100 µM | TGI [42]: > 100 µM | GI50 [43]: > 100 µM | TGI [43]: > 100 µM | GI50 [44]: > 100 µM | TGI [44]: > 100 µM | GI50 [45]: > 100 µM | TGI [45]: > 100 µM | GI50 [46]: > 100 µM | TGI [46]: > 100 µM | GI50 [47]: > 100 µM | TGI [47]: > 100 µM | GI50 [48]: > 100 µM | TGI [48]: > 100 µM | GI50 [49]: > 100 µM | TGI [49]: > 100 µM | GI50 [50]: > 100 µM | TGI [50]: > 100 µM | GI50 [51]: > 100 µM | TGI [51]: > 100 µM | GI50 [52]: > 100 µM | TGI [52]: > 100 µM | GI50 [53]: > 100 µM | TGI [53]: > 100 µM | GI50 [54]: > 63.8 µM | TGI [54]: > 100 µM | GI50 [55]: > 100 µM | TGI [55]: > 100 µM | GI50 [56]: > 100 µM | TGI [56]: > 100 µM | GI50 [57]: > 100 µM | TGI [57]: > 100 µM | GI50 [58]: > 100 µM | TGI [58]: > 100 µM
